Test results reported in US20100210467A1, “AGENT FOR IMPROVING SUGARCANE BRIX AND METHOD OF PROMOTING SUGARCANE RIPENING USING THE SAME” (Kumiai Chemical Industry Co., Ltd., priority 2007, published 2010).

How the values were obtained:
Assay type in all cases: in vivo
sugarcane [1] = assay: Example 1: sugar content of sugarcane stem juice after power-sprayer application, field test in Brazil
Experimental: With respect to sugarcane grown in a sugarcane cultivated area in Brazil (an average Brix value in the harvesttime being 18%), a juice was collected from 5 middle internodes selected at random in the sugarcane stem and the Brix value was measured according to a usual method. At the time the measured Brix value became 82% of the aforementioned average Brix value, a bispyribac-sodium formulation (a commercially available product, a tradename “NOMINEE 400SC”) was diluted with water so that the amount of the effective ingredient in 74 liters of the spraying liquid could be equal to the used amount shown in Table 1. The liquid was then sprayed above the plant by the aid of a power sprayer to a test area at a rate of 74 liters per hectare.
(§1) In a control area, a known sulfometuron-methyl formulation (a commercially available product, a tradename “CURAVIAL”) was similarly sprayed.
Next, 10 individual sugarcanes were cut from each area on the initial day of spraying, after 30 days of spraying and after 45 days of spraying, and thereafter the stem was squeezed and sugar was recovered from the juice to obtain the yield. Each yield was compared with the yield of the initial day of spraying and the rate of increase (%) was calculated.
(§2) In accordance with “NORMAS DE AVALIAçÃO DA […] DA CANA-DE-AçÚCAR” used in Brazilian sugar refining plants as Standard for quality evaluation of sugarcane, the analysis on the sugar content in the squeezed juice of sugarcane stem was carried out for Brix value, sugar content in sugarcane (PC), and total sugar amount recoverable from sugarcane stem (ATR) as follows.
(§3) Brix was measured according to a digital refractometer. PC was calculated according to the equation (1). ATR was calculated according to the equation (5).
S denotes a sugar content in the extracted liquid and is calculated according to the equation (2). F denotes an amount of fibers in sugarcane and is calculated according to the equation (3). C denotes a conversion coefficient from the sugar content in the extracted liquid to an absolute amount and is calculated according to the equation (4).
LAI denotes a measured value by the digital saccharimeter after clarification of the juice by a clarifying mixture made from aluminum.
PBU denotes the mass of a wet bagasse exhausted from a pressing machine in the squeezed step of sugarcane stem.
ARC denotes an amount of reducing sugar of sugarcane and is calculated from the following equation (6).
AR denotes an amount of reducing sugar in the extracted liquid and is calculated from the following equation (7).

sugarcane [2] = assay: Example 5: sugar content of sugarcane stem juice after bispyribac-sodium and/or gibberellin spraying, field test in Brazil; conditions: 20 g/ha
Experimental: as §2, §3
At the time the Brix value of sugarcane grown in a sugarcane cultivated area in Brazil (an average Brix value in the harvesttime being 18%) became 88% of the aforesaid average Brix value, a bispyribac-sodium formulation (a commercially available product, a tradename, “NOMINEE 400SC”) and a gibberellin formulation (a commercially available product, a tradename, “PRO-GIBB”) were admixed together and diluted with water or separately diluted with water so that the amount of the effective ingredient in 105 liters of each of the spraying liquids could be equal to the used amount shown in Table 8, and each liquid was sprayed above the plant by the aid of a CO2-pressurized back pack sprayer to the test area at a rate of 105 liters per hectare.
as §1
(§4) Next, 20 individual sugarcanes were cut from each area on the initial day of spraying, after 15 days of spraying, after 30 days of spraying and after 45 days of spraying, and thereafter the stems were squeezed and sugar was recovered from the juice to obtain the yield. Each yield was compared with the yield of the initial day of spraying and the rate of increase (%) was calculated. The analysis on the sugar content in the squeezed juice of sugarcane stems was carried out similarly as in the case of Example 1.

sugarcane [3] = assay: Example 2: sugar content of sugarcane stem juice after spraying from an aircraft, field test in Brazil; conditions: after 30 days of spraying
Experimental: as §2, §3
At the time the Brix value of sugarcane grown in a sugarcane cultivated area in Brazil (an average Brix value in the harvesttime being 21%) became 81% of the aforesaid average Brix value, a bispyribac-sodium formulation (a commercially available product, a tradename “NOMINEE 400SC”) was diluted with water so that the amount of the effective ingredient in 30 liters of the spraying liquid could be equal to the used amount shown in Table 3, and the liquid was sprayed over the test area from an air-craft at a rate of 30 liters per hectare.
In a control area, a known fluazifop formulation (a commercially available product, a tradename “[…]”) was similarly sprayed.
Next, 5 individual sugarcanes were cut from 5 locations in each area, i.e. 25 sugarcanes from each area, on the initial day of spraying and after 30 days of spraying, and thereafter the stems were squeezed and sugar was recovered from the juice to obtain the yield. The yield after 30 days of spraying was compared with the yield of the initial day of spraying and the rate of increase (%) was calculated. The analysis on the sugar content in the squeezed juice of sugarcane stems was carried out similarly as in the case of Example 1.

sugarcane [4] = assay: Example 6: sugar content of sugarcane stem juice after bispyribac-sodium + prohexadione-calcium spraying, field test in Brazil; conditions: 200 g/ha
Experimental: as §2, §3
At the time the Brix value of sugarcane grown in a sugarcane cultivated area in Brazil (an average Brix value in the harvesttime being 20%) became 80% of the aforesaid average Brix value, a bispyribac-sodium formulation (a commercially available product, a tradename, “NOMINEE 400SC”) and a prohexadione-calcium formulation (a tradename, “VIVIFUL”) were admixed together and diluted with water so that the amount of the effective ingredient in 105 liters of each spraying liquid could be equal to the used amount shown in Table 10, and the liquid was sprayed above the plant by the aid of a CO2-pressurized back pack sprayer to the test area at a rate of 105 liters per hectare.
In a control area, a known trinexapac-ethyl formulation (a commercially available product, a tradename “MODDUS”) was similarly sprayed.
as §4

[5] = 16 g/ha, after 30 days of spraying
[6] = 16 g/ha, after 45 days of spraying
[7] = 35 g/ha, after 30 days of spraying
[8] = 35 g/ha, after 45 days of spraying

COc1cc(OC)nc(Oc2cccc(Oc3nc(OC)cc(OC)n3)c2C(=O)O)n1 [Bispyribac-sodium]
ATR increased rate from the initial day of spraying (sugarcane [1]; [5]): 23.1% | Brix increased rate from the initial day of spraying (sugarcane [1]; [5]): 23.0% | Concentration of soluble solid matter, Brix (sugarcane [1]; [5]): 18.4% | PC increased rate from the initial day of spraying (sugarcane [1]; [5]): 25.7% | Sugar content in sugarcane, PC (sugarcane [1]; [5]): 13.0% | Total sugar amount recoverable from 1 kg of stem, ATR (sugarcane [1]; [5]): 129.7 g | ATR increased rate from the initial day of spraying (sugarcane [1]; [6]): 44.9% | Brix increased rate from the initial day of spraying (sugarcane [1]; [6]): 41.0% | Concentration of soluble solid matter, Brix (sugarcane [1]; [6]): 21.1% | PC increased rate from the initial day of spraying (sugarcane [1]; [6]): 50.9% | Sugar content in sugarcane, PC (sugarcane [1]; [6]): 15.5% | Total sugar amount recoverable from 1 kg of stem, ATR (sugarcane [1]; [6]): 152.7 g | ATR increased rate from the initial day of spraying (sugarcane [1]; [7]): 32.0% | Brix increased rate from the initial day of spraying (sugarcane [1]; [7]): 29.5% | Concentration of soluble solid matter, Brix (sugarcane [1]; [7]): 20.5% | PC increased rate from the initial day of spraying (sugarcane [1]; [7]): 35.9% | Sugar content in sugarcane, PC (sugarcane [1]; [7]): 14.7% | Total sugar amount recoverable from 1 kg of stem, ATR (sugarcane [1]; [7]): 145.1 g | ATR increased rate from the initial day of spraying (sugarcane [1]; [8]): 42.1% | Brix increased rate from the initial day of spraying (sugarcane [1]; [8]): 37.1% | Concentration of soluble solid matter, Brix (sugarcane [1]; [8]): 21.7% | PC increased rate from the initial day of spraying (sugarcane [1]; [8]): 47.6% | Sugar content in sugarcane, PC (sugarcane [1]; [8]): 15.9% | Total sugar amount recoverable from 1 kg of stem, ATR (sugarcane [1]; [8]): 156.2 g | ATR increased rate from the initial day of spraying (sugarcane [2]; after 15 days of spraying): 6.2% | Brix increased rate from the initial day of spraying (sugarcane [2]; after 15 days of spraying): 4.5% | Concentration of soluble solid matter, Brix (sugarcane [2]; after 15 days of spraying): 16.2% | Total sugar amount recoverable from 1 kg of stem, ATR (sugarcane [2]; after 15 days of spraying): 112.5 g | ATR increased rate from the initial day of spraying (sugarcane [2]; after 30 days of spraying): 17.3% | Brix increased rate from the initial day of spraying (sugarcane [2]; after 30 days of spraying): 11.7% | Concentration of soluble solid matter, Brix (sugarcane [2]; after 30 days of spraying): 17.3% | Total sugar amount recoverable from 1 kg of stem, ATR (sugarcane [2]; after 30 days of spraying): 124.2 g | ATR increased rate from the initial day of spraying (sugarcane [2]; after 45 days of spraying): 19.1% | Brix increased rate from the initial day of spraying (sugarcane [2]; after 45 days of spraying): 12.9% | Concentration of soluble solid matter, Brix (sugarcane [2]; after 45 days of spraying): 17.5% | Total sugar amount recoverable from 1 kg of stem, ATR (sugarcane [2]; after 45 days of spraying): 126.1 g | ATR increased rate from the initial day of spraying (sugarcane [3]; 25 g/ha): 22.3% | Brix increased rate from the initial day of spraying (sugarcane [3]; 25 g/ha): 19.8% | Concentration of soluble solid matter, Brix (sugarcane [3]; 25 g/ha): 19.9% | PC increased rate from the initial day of spraying (sugarcane [3]; 25 g/ha): 24.1% | Sugar content in sugarcane, PC (sugarcane [3]; 25 g/ha): 14.6% | Total sugar amount recoverable from 1 kg of stem, ATR (sugarcane [3]; 25 g/ha): 141.8 g | ATR increased rate from the initial day of spraying (sugarcane [3]; 30 g/ha): 22.1% | Brix increased rate from the initial day of spraying (sugarcane [3]; 30 g/ha): 21.6% | Concentration of soluble solid matter, Brix (sugarcane [3]; 30 g/ha): 20.8% | PC increased rate from the initial day of spraying (sugarcane [3]; 30 g/ha): 25.2% | Sugar content in sugarcane, PC (sugarcane [3]; 30 g/ha): 15.6% | Total sugar amount recoverable from 1 kg of stem, ATR (sugarcane [3]; 30 g/ha): 149.0 g

CCOC(=O)C1CC(=O)C(=C(O)C2CC2)C(=O)C1 (stereo not drawn) [Trinexapac-ethyl, trinexapac-ethyl]
ATR increased rate from the initial day of spraying (sugarcane [4]; after 15 days of spraying): 10.3% | Brix increased rate from the initial day of spraying (sugarcane [4]; after 15 days of spraying): 8.0% | Concentration of soluble solid matter, Brix (sugarcane [4]; after 15 days of spraying): 17.5% | Total sugar amount recoverable from 1 kg of stem, ATR (sugarcane [4]; after 15 days of spraying): 125.3 g | ATR increased rate from the initial day of spraying (sugarcane [4]; after 30 days of spraying): 18.0% | Brix increased rate from the initial day of spraying (sugarcane [4]; after 30 days of spraying): 15.7% | Concentration of soluble solid matter, Brix (sugarcane [4]; after 30 days of spraying): 18.8% | Total sugar amount recoverable from 1 kg of stem, ATR (sugarcane [4]; after 30 days of spraying): 134.0 g | ATR increased rate from the initial day of spraying (sugarcane [4]; after 45 days of spraying): 30.8% | Brix increased rate from the initial day of spraying (sugarcane [4]; after 45 days of spraying): 24.7% | Concentration of soluble solid matter, Brix (sugarcane [4]; after 45 days of spraying): 20.2% | Total sugar amount recoverable from 1 kg of stem, ATR (sugarcane [4]; after 45 days of spraying): 148.5 g
